Reference: paper PMC11191095, “QSAR Reveals Decreased Lipophilicity of Polar Residues Determines the Selectivity of Antimicrobial Peptide Activity” (ACS Omega, 2024)
Where a SMILES comes first, the peptide text is derived from it.

Assays:
[1] = test system: S. aureus (MSSA) ATCC 9144; assay: microbe, parasite or virus in culture; type: cell-based, Staphylococcus aureus; settings: S. aureus (MSSA) ATCC 9144 (S); shown in µM
In short: (§1)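 Peptides 128→2 μg/mL, 2-fold series; inoculum ~5 × 10^5 CFU/mL from overnight culture (OD600 0.01, mixed 1:1). MHB non-cation-adjusted for bacteria, RPMI 1640 + 2% glucose for fungi. 37 °C, 20 h, OD600. MIC50/MIC90 at 50%/90% inhibition; n ≥ 3.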

[2] = test system: S. aureus (MRSA) USA300; assay: microbe, parasite or virus in culture; type: cell-based, Staphylococcus aureus; settings: S. aureus (MRSA) USA300 (R); shown in µM
In short: as §1

[3] = test system: S. aureus (MRSA) 1199B; assay: microbe, parasite or virus in culture; type: cell-based, Staphylococcus aureus; settings: S. aureus (MRSA) 1199B (R); shown in µM
In short: as §1

[4] = test system: S. aureus (MRSA) NCTC 13616; assay: microbe, parasite or virus in culture; type: cell-based, Staphylococcus aureus; settings: S. aureus (MRSA) NCTC 13616 (R); shown in µM
In short: as §1

[5] = test system: human erythrocytes; assay: In vitro hemolytic activity; type: cell-based; settings: human erythrocytes in PBS, 1 h, 37 °C, OD550, from dose response curves
Protocol: Potential erythrocyte hemolysis was tested by incubating serial dilutions of the AMPs in PBS with freshly collected erythrocytes at a ratio of 1:1 in 96-well polypropylene V-shape plates for 1 h at 37 °C. Control wells were treated with 0.1% Triton-X-100 to ensure complete lysis or PBS-only to represent no lysis. The erythrocytes were collected by centrifugation and the OD550 of the supernatant was measured using a plate reader. The percentage hemolysis was calculated as [drawing 1] 1 where Apeptide is the absorbance value of erythrocytes exposed to a known peptide concentration, Agrowth control is the absorbance of erythrocytes exposed to 0.1% Triton-X-100 and Ablank is the absorbance of erythrocytes exposed to the PBS. The concentrations at which a peptide caused 10% (HC10) and 50% (HC50) hemolysis was determined from the dose response curves.

[6] = test system: K. pneumoniae NCTC 13368; assay: microbe, parasite or virus in culture; type: cell-based, Klebsiella pneumoniae; settings: K. pneumoniae NCTC 13368 (R); shown in µM
In short: as §1

[7] = test system: K. pneumoniae M6; assay: microbe, parasite or virus in culture; type: cell-based, Klebsiella pneumoniae; settings: K. pneumoniae M6 (S); shown in µM
In short: as §1

[8] = test system: C. auris TDG 1912; assay: microbe, parasite or virus in culture; type: cell-based, Candida auris; settings: C. auris TDG 1912
In short: as §1

[9] = test system: P. aeruginosa PAO1; assay: microbe, parasite or virus in culture; type: cell-based, Pseudomonas aeruginosa; settings: P. aeruginosa PAO1 (S)
In short: as §1

[10] = test system: P. aeruginosa NCTC 13437; assay: microbe, parasite or virus in culture; type: cell-based, Pseudomonas aeruginosa; settings: P. aeruginosa NCTC 13437 (R); shown in µM
In short: as §1

[11] = test system: E. coli NCTC 12923; assay: microbe, parasite or virus in culture; type: cell-based, Escherichia coli; settings: E. coli NCTC 12923 (S); shown in µM
In short: as §1

[12] = test system: E. coli LEC001; assay: microbe, parasite or virus in culture; type: cell-based, Escherichia coli; settings: E. coli LEC001 (R); shown in µM
In short: as §1

[13] = test system: HaCat cell line; assay: In vitro HaCat cytotoxicity (MTT); type: cell-based, human; settings: 21 h exposure, OD570, relative to untreated control
Protocol: The HaCat cell line (Cellonex, South Africa) was cultured in Dulbecco’s Modified Eagle Medium (DMEM) supplemented with 10% heat-inactivated fetal calf serum (FCS) and 1% antibiotic-antimycotic (Abs) and maintained at 5–10% CO2, 37 °C, 95% humidity. For cytotoxicity screening, 5.56 × 10^4 cells/mL were plated in a 96-well plate. After 24 h incubation, the cells are initially exposed to each peptide at a concentration of 256 μg/mL or 0.1% Triton-X-100 as the control for 21 h. If cytotoxicity was observed, at a level of significance of p < 0.0001 compared with the untreated control after 21 h, a dose-response assay was undertaken. Cell viability was determined by adding 10% 3-(4,5-dimethyl-2-thiazolyl)-2,5-diphenyl-2H-tetrazolium bromide (MTT) (1 mg/mL), to each well and after a further 3 h incubation the media was discarded, and the formazan crystals dissolved by adding 25% DMSO in ethanol. The absorbance was measured at OD570 by using the FLUOstar Omega multidetection microplate reader (BMG Labtech). Percentage cell viability was calculated relative to the untreated control. The LC50 was defined as the concentration of AMP treatment that results in 50% lethality of HaCat cells and was determined from the dose-response curves.

[14] = test system: A. baumannii ATCC 17978; assay: microbe, parasite or virus in culture; type: cell-based, Acinetobacter baumannii; settings: A. baumannii ATCC 17978 (S); shown in µM
In short: as §1

[15] = test system: A. baumannii AYE; assay: microbe, parasite or virus in culture; type: cell-based, Acinetobacter baumannii; settings: A. baumannii AYE (R); shown in µM
In short: as §1

[16] = test system: C. tropicalis NCPF 8760; assay: microbe, parasite or virus in culture; type: cell-based; settings: C. tropicalis NCPF 8760; shown in µM
In short: as §1

[17] = test system: C. glabrata NCPF 8018; assay: microbe, parasite or virus in culture; type: cell-based; settings: C. glabrata NCPF 8018
In short: as §1

[18] = test system: C. albicans NCPF 3281; assay: microbe, parasite or virus in culture; type: cell-based; settings: C. albicans NCPF 3281; shown in µM
In short: as §1

[19] = test system: C. krusei NCPF 3876; assay: microbe, parasite or virus in culture; type: cell-based; settings: C. krusei NCPF 3876; shown in µM
In short: as §1

[20] = test system: C. parapsilosis NCPF 3209; assay: microbe, parasite or virus in culture; type: cell-based; settings: C. parapsilosis NCPF 3209; shown in µM
In short: as §1

[21] = 50% growth inhibition, RPMI 1640 + 2% glucose, 37 °C, 20 h, OD600
[22] = 90% growth inhibition, RPMI 1640 + 2% glucose, 37 °C, 20 h, OD600
[23] = MHB, 37 °C, 20 h, OD600, min. three biological repeats

SMILES	Modal MIC [1] [µM]	Modal MIC [2] [µM]	Modal MIC [3] [µM]	Modal MIC [4] [µM]	HC10 (concentration causing 10% hemolysis) [5] [µg/mL]	Modal MIC [6] [µM]	Modal MIC [7] [µM]	Modal MIC50 [8, 21] [µg/mL]	Modal MIC90 [8, 22] [µg/mL]	Modal MIC50 ([8]; shown in µM) [µM]	Modal MIC90 ([8]; shown in µM) [µM]	Modal MIC [9, 23] [µg/mL]	Modal MIC ([9]; shown in µM) [µM]	Modal MIC [10] [µM]	Modal MIC [11] [µM]	Modal MIC [12] [µM]	% HaCat cell death at initial screening (256μg/mL) ± SD [13] [%]	Modal MIC [14] [µM]	Modal MIC [15] [µM]	Modal MIC50 [16] [µM]	also measured
CC[C@H](C)[C@H](NC(=O)[C@H](C)NC(=O)[C@H](CCCCN)NC(=O)[C@@H]1CCCN1C(=O)[C@@H](NC(=O)[C@H](CC(C)C)NC(=O)[C@H](CO)NC(=O)[C@H](Cc1ccccc1)NC(=O)[C@H](CC(C)C)NC(=O)[C@@H](N)Cc1ccccc1)[C@@H](C)CC)C(=O)NCC(=O)NCC(=O)N[C@@H](CC(C)C)C(=O)N[C@H](C(=O)N[C@@H](CO)C(=O)N[C@@H](C)C(=O)N[C@@H](Cc1ccccc1)C(=O)N[C@@H](CCCCN)C(N)=O)[C@@H](C)CC [AamAP-S1a]	2	4.1	2	4.1	45	32.4	32.4	> 128	> 128	> 64.8	> 64.8	> 128	> 64.8	64.8	8.1	8.1	97.6 ±12.6	4.1	4.1	8.1	HC50 (concentration causing 50% hemolysis) [5]: 112 µg/mL; HC50 (concentration causing 50% hemolysis) ([5]; listed as AamAP1-S1a): lower than 256 µg/mL; Modal MIC90 [16]: 8.1 µM; Modal MIC50 ([17]; 50% growth inhibition, RPMI 1640 + 2% glucose, 37 °C, 20 h): > 128 µg/mL; Modal MIC90 ([17]; 90% growth inhibition, RPMI 1640 + 2% glucose, 37 °C, 20 h): > 128 µg/mL; Modal MIC50 ([17]; shown in µM): > 64.8 µM; Modal MIC90 ([17]; shown in µM): > 64.8 µM; Modal MIC50 [18]: 64.8 µM; Modal MIC90 [18]: 64.8 µM; Modal MIC50 [19]: 32.4 µM; Modal MIC90 [19]: 32.4 µM; Modal MIC50 [20]: 64.8 µM; Modal MIC90 [20]: 64.8 µM
CC[C@H](C)[C@H](N)C(=O)N[C@@H](CC(C)C)C(=O)N[C@@H](CCCCN)C(=O)N[C@@H](CCCCN)C(=O)N[C@H](C(=O)N[C@@H](Cc1c[nH]c2ccccc12)C(=O)N[C@@H](CCC(=O)O)C(=O)NCC(=O)N[C@H](C(=O)N[C@@H](CCCCN)C(=O)N[C@@H](CO)C(=O)N[C@@H](CC(C)C)C(=O)N[C@@H](Cc1ccccc1)C(N)=O)[C@@H](C)CC)[C@@H](C)CC [K3-IsCTa] (H-ILKKIWEGIKSLF-NH2)	5	9.9	5	5	84	9.9	9.9	> 128	> 128	> 79.5	> 79.5	> 128	> 79.5	39.8	5	5	104.1 ± 11.9	2.5	5	2.5	Modal MIC90 [16]: 5 µM; Modal MIC50 ([17]; shown in µM): 39.8 µM; Modal MIC90 ([17]; shown in µM): 39.8 µM; Modal MIC50 [18]: 19.9 µM; Modal MIC90 [18]: 39.8 µM; Modal MIC50 [19]: 9.9 µM; Modal MIC90 [19]: 19.9 µM; Modal MIC50 [20]: 39.8 µM; Modal MIC90 [20]: 39.8 µM
